Test results published in paper PMC12715762, “Discovery of VU6052254: A Novel, Potent M1 Positive Allosteric Modulator” (ACS Chemical Neuroscience, 2025).

Experiments:
C57Bl/6 mice = assay: phenotypic seizure liability assay (Racine scale); assay type: in vivo, mouse
Experimental: min, with an isocratic hold for 0.5 min, before transitioning to 10% B over 0.05 min. The column was re-equilibrated (1 min) before the next sample injection. The total run time was 2.55 min, and the HPLC flow rate was 0.5 ml/min. The source temperature was set at 500 °C, and mass spectral analyses were performed using a Turbo-Ion spray source in positive ionization mode (5.0-kV spray voltage) and using multiple-reaction monitoring of transitions specific for the analytes. All data were analyzed using AB Sciex Analyst 1.5.1 software.
Brain plasma concentration ratio (Kp) was calculated by dividing brain concentration by plasma concentration for each animal. Unbound brain to unbound plasma concentration ratio (Kp,uu) is calculated using the following formula: Kp,uu = (Brain ng/g x brain fu)/(plasma ng/ml x plasma fu).
Pharmacokinetic profiles in rats following oral single escalating doses Single escalating oral dosing in Sprague-Dawley rats was performed at Frontage Laboratories according to their non-GLP Standard Operating Procedure and IACUC protocols. In short, compounds were formulated in 10% Tween 80 in water and dosed at 10 mg/kg. At different times, arterial blood was collected from a femoral artery catheter, and compound concentration was determined in plasma by LC-MS/MS following their non-GLP protocol. PK parameters were determined using Phoenix WinNonlin software (version 6.3). […]
Blood-brain barrier penetration was determined using MDR1-MDCK cell monolayers by Absorption Systems, following their protocol. […] Compounds concentration on either side of the monolayer was determined by LC-MS/MS and apparent permeability and efflux ratio were determined as described in Wang, Q. et al.1 […]
To evaluate induction of behavioral manifestation of seizure activity, C57Bl/6 mice received administration of vehicle or 100 mg/kg M1 PAM 5. […] Animals were monitored continuously and scored for behavioral manifestations of seizure activity at 5, 15, 30 min, and 1 h. Behavioral manifestations of seizures were scored using a modified Racine scoring system. […]

1A2 = assay: CYP450 induction in human hepatocytes (three donors); assay type: cell-based; conditions: 10 μM, human hepatocytes from three donors
3A4 = assay: as above; assay type: cell-based
[1] = 14-day rat toxicology and toxicokinetic study; assay type: in vivo; conditions: both sexes, rat, plasma, po, PEG-400, rat
Experimental: (§1) PAM 7, after a 250 g scale-up, advanced into 14-day rat toxicology studies, with vehicle (PEG-400), 30 mg/kg PO and 300 mg/kg PO cohorts, N = 6 per sex per cohort. […] Higher serum creatinine concentrations were however noted in males at both dose levels (+100% at 30 mg/kg/day and +300% at 300 mg/kg/day). […] Based on the observations of correlative clinical and anatomic kidney toxicity findings in an exploratory 14-day toxicity and toxicokinetics rat study, in conjunction with uncertain margins to projected systemic human therapeutic efficacy and CYP3A4 induction concerns, the development of PAM 7 was discontinued.

rats = assay: 14-day rat toxicology and toxicokinetic study; assay type: in vivo; conditions: for cholinergic/SLUDGE adverse effects in 14-day rat study: 30 and 300 mg/kg PO; for change in serum creatinine concentration: males
Experimental: as §1

Adrenergic α2A = target: T1, Adrenergic α2A (Homo sapiens, UniProt P08913); assay: Eurofins radioligand binding
T1 construct: purchased Eurofins (contract screen, Study TW04-0011004)
T1 sequence (P08913 whole entry): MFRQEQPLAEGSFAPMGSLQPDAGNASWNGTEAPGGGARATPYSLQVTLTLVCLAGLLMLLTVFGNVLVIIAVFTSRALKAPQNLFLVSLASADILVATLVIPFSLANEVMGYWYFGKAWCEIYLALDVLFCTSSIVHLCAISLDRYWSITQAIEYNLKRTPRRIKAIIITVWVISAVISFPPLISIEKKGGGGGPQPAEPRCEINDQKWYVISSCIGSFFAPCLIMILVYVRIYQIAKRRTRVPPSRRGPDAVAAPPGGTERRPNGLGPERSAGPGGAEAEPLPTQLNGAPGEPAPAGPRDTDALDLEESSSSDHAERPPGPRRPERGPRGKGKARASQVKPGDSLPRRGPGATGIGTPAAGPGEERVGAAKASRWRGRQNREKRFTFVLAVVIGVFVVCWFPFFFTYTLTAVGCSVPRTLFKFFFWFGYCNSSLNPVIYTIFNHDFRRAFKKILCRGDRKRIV

Dopamine D2S = Dopamine D2S (Homo sapiens, UniProt P14416); assay: Eurofins radioligand binding
Dopamine D2S, sequence (P14416 1-414 isoform P14416-2): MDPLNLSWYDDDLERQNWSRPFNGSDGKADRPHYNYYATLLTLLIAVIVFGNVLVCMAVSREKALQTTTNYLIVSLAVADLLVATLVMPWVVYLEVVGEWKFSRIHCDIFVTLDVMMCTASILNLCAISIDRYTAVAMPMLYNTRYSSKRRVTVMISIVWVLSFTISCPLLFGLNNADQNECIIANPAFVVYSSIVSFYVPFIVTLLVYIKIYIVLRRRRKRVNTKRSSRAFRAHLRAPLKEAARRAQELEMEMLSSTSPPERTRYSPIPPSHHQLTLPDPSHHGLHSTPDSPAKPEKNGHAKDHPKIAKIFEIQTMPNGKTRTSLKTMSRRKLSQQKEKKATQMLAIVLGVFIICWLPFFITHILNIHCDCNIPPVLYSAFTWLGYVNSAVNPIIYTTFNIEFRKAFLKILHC

Endothelin ETB = Endothelin ETB (Homo sapiens, UniProt P24530); assay: Eurofins radioligand binding
Endothelin ETB, sequence (P24530 27-442): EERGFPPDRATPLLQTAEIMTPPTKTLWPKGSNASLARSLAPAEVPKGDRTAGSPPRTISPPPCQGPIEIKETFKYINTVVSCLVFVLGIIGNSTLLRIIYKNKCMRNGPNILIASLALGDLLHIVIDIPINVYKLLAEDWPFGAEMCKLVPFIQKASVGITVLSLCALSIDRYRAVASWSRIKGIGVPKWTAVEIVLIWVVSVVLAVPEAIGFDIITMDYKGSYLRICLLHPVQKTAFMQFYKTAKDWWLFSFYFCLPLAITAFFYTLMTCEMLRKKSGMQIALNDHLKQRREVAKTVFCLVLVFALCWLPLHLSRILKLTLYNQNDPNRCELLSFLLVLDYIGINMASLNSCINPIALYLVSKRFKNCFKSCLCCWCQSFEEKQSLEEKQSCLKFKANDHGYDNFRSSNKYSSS

GABAB1A = GABAB1A (Homo sapiens, UniProt Q9UBS5); assay: Eurofins radioligand binding
GABAB1A, sequence (Q9UBS5 15-961 limits assumed): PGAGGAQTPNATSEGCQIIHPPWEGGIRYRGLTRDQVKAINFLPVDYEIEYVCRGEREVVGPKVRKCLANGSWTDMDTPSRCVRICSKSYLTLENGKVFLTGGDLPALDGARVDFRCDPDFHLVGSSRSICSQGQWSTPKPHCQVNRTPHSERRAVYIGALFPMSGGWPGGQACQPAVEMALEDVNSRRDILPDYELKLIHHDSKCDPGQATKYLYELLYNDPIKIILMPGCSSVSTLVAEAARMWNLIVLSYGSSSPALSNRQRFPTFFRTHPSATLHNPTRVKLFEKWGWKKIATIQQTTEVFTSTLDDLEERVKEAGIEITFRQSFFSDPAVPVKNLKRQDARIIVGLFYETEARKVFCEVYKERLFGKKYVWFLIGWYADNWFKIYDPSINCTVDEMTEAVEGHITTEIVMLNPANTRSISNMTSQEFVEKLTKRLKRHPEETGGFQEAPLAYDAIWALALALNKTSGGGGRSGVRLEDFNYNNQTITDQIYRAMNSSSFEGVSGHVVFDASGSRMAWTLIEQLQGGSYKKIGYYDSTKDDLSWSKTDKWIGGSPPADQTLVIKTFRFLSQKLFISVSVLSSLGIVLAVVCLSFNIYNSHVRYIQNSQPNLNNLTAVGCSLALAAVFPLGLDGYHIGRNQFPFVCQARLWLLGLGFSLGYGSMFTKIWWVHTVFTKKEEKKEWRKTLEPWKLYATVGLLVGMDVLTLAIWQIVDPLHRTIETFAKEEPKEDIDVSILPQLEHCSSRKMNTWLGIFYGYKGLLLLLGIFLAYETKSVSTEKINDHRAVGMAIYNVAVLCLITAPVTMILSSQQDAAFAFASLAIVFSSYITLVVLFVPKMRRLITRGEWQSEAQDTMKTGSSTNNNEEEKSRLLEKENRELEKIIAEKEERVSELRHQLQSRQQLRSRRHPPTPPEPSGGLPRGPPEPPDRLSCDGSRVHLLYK
GABAB1A, sequence (O75899 42-941 partner): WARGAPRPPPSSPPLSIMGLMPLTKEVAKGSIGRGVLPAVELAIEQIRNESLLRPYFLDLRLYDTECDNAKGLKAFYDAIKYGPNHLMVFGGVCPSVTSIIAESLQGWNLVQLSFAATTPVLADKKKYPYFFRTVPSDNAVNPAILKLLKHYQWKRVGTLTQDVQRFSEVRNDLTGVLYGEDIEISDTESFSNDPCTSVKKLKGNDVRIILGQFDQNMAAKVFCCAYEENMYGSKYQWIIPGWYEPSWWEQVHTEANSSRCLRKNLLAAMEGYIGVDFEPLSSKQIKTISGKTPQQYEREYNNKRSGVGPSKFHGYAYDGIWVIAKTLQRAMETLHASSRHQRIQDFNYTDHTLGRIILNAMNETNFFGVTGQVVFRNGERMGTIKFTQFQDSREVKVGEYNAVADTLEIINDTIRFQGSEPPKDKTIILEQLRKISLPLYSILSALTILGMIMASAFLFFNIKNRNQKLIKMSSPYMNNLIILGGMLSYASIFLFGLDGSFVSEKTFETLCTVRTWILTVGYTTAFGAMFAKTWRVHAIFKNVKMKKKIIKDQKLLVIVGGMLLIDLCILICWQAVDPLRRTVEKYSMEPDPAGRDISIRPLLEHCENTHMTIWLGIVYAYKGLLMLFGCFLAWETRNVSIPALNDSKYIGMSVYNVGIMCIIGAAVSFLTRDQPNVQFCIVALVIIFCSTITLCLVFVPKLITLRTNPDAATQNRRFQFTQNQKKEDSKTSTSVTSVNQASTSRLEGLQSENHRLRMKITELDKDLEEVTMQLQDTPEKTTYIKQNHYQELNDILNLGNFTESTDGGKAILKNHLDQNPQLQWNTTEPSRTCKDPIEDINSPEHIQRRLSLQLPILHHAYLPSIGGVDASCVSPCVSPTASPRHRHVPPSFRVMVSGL

Glutamate, NMDA, Glycine = assay: Eurofins radioligand binding; conditions: Rat
[2] = 300 mg/kg, Day 14, 300 mg/kg PO

**Q.** What does the source list for Cn1cc2c(-c3cc(F)c(CN4Cc5ncccc5C4=O)c(F)c3)ccc(C(C)(C)O)c2n1 [compound 7]?
**A.** AEs in seizure liability assay (C57Bl/6 mice; 56.6 mg/kg IP, mice, result in words): negligible AEs; Racine scale scores (C57Bl/6 mice; 100 mg/kg IP, mice): less than 2; AEs in Racine score test (C57Bl/6 mice; 56.6 and 100 mg/kg, i.p., 360 min, male C57Bl/6 mice, result in words): minimal AEs at 60 min postadministration with a lack of AEs observed at 6 h; 1A2 induction (1A2): 4.9%; 3A4 induction (3A4; 10 μM, human hepatocytes from three donors): 7.6%; 3A4 induction (3A4; 30 μM, mRNA as the reporter): 30.5%; AUC(0-t) ([1]; 30 mg/kg, Day 1, 30 mg/kg PO): 224 µM·h; Cmax ([1]; 30 mg/kg, Day 1, 30 mg/kg PO): 20.9 µM; AUC(0-t) ([1]; 30 mg/kg, Day 14, 30 mg/kg PO): 107 µM·h; Cmax ([1]; 30 mg/kg, Day 14, 30 mg/kg PO): 10 µM; AUC(0-t) ([1]; 300 mg/kg, Day 1, 300 mg/kg PO): 758 µM·h; Cmax ([1]; 300 mg/kg, Day 1, 300 mg/kg PO): 37.9 µM; AUC(0-t) [1, 2]: 909 µM·h; Cmax [1, 2]: 52.9 µM; microscopic pathology of kidney (rats; 300 mg/kg/day, result in words): pyknotic cells were also seen in collecting tubules, and less extensively, in the renal papilla; cholinergic/SLUDGE adverse effects in 14-day rat study (rats; result in words): No cholinergic/SLUDGE adverse effects were observed; cholinergic/SLUDGE adverse effects in 14-day rat study (rats; result in words, listed as VU6052254): no cholinergic adverse effects; microscopic pathology of renal cortex and medulla (rats; both dose levels, result in words): dose-related increase in number of pyknotic cells in the lumen of descending tubules/proximal collecting tubules; total plasma concentration relative to the plasma concentration at MED in the CFC assay (0.3 mg/kg PO) (rats; first of the two printed values (30 mg/kg cohort implied)): 125 x; fibrinogen concentration (rats; males administered 300 mg/kg, result in words): minimally higher fibrinogen concentration; hematology test results (rats; males administered up to 30 mg/kg, result in words): no PAM 7-related effects noted in hematology test results; change in serum creatinine concentration (rats; 30 mg/kg/day): +100%; change in serum creatinine concentration (rats; 300 mg/kg/day): +300%; organ weights or histology (rats; result in words): no gross changes on organ weights or histology; total plasma concentration relative to the plasma concentration at MED in the CFC assay (0.3 mg/kg PO) (rats; second of the two printed values (300 mg/kg cohort implied)): 227 x; IC50 (Adrenergic α2A): 3.2 µM; inhibition at 10 µM (Adrenergic α2A; Adrenergic α2A, Human): 75%; inhibition at 10 µM (Dopamine D2S): -2%; inhibition at 10 µM (Endothelin ETB): 6%; inhibition at 10 µM (GABAB1A): 7%; % Inhibition at 10 µM (Glutamate, NMDA, Glycine): -9%
